Measurements as given in PubChem BioAssay AID248 (DTP/NCI, 2004).
Inconclusive results and toxic doses are left out. Cut-off read from the data, not from the text of the source: active = T/C of 150% or more; inactive = T/C below 125%.

System: L1210 leukemia ip in BDF1 mice, survival T/C
Assay: NCI In Vivo Anticancer Drug Screen. Data for tumor model L1210 Leukemia (intraperitoneal) in B6D2F1 (BDF1) mice
Details: endpoint: mean survival time, higher = longer survival
Summary of the method: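 Transplantable tumor model; survival measured in treated vs vehicle control mice. Value = treated/control.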

[1] = dose: 100.0 mg/kg/injection, schedule: Q01DX001 (ip), vehicle: saline
[2] = dose: 200.0 mg/kg/injection, schedule: Q01DX001 (ip), vehicle: saline
[3] = dose: 400.0 mg/kg/injection, schedule: Q01DX001 (ip), vehicle: saline
[4] = dose: 100.0 mg/kg/injection, schedule: Q01DX009 (ip), vehicle: saline with Tween-80
[5] = dose: 100.0 mg/kg/injection, schedule: Q04DX003 (ip), vehicle: saline with Tween-80
[6] = dose: 200.0 mg/kg/injection, schedule: Q01DX009 (ip), vehicle: saline with Tween-80
[7] = dose: 200.0 mg/kg/injection, schedule: Q04DX003 (ip), vehicle: saline with Tween-80
[8] = dose: 400.0 mg/kg/injection, schedule: Q01DX009 (ip), vehicle: saline with Tween-80
[9] = dose: 400.0 mg/kg/injection, schedule: Q04DX003 (ip), vehicle: saline with Tween-80
[10] = dose: 12.5 mg/kg/injection, schedule: Q01DX009 (ip), vehicle: Klucel (hydroxypropylcellulose) (HPC)
[11] = dose: 25.0 mg/kg/injection, schedule: Q01DX009 (ip), vehicle: Klucel (hydroxypropylcellulose) (HPC)
[12] = dose: 50.0 mg/kg/injection, schedule: Q01DX009 (ip), vehicle: Klucel (hydroxypropylcellulose) (HPC)
[13] = dose: 100.0 mg/kg/injection, schedule: Q01DX009 (ip), vehicle: Klucel (hydroxypropylcellulose) (HPC)
[14] = dose: 200.0 mg/kg/injection, schedule: Q01DX009 (ip), vehicle: Klucel (hydroxypropylcellulose) (HPC)
[15] = dose: 100.0 mg/kg/injection, schedule: Q04DX002 (ip), vehicle: saline with Tween-80
[16] = dose: 200.0 mg/kg/injection, schedule: Q04DX002 (ip), vehicle: saline with Tween-80
[17] = dose: 400.0 mg/kg/injection, schedule: Q04DX002 (ip), vehicle: saline with Tween-80

Measured: T/C

CCCCNC(=O)c1cc(NC(=O)c2ccc(C(=O)Nc3cc(C(=O)NCCCC)cc(C4N=CCN4)c3)cc2)cc(C2=NCCN2)c1 (stereo not drawn)
inactive: dose: 5.0 mg/kg/injection, schedule: Q01DX015 (ip), vehicle: methylcellulose (MC) 86 % of control | dose: 20.0 mg/kg/injection, schedule: Q01DX015 (ip), vehicle: methylcellulose (MC) 86 % of control | dose: 40.0 mg/kg/injection, schedule: Q01DX015 (ip), vehicle: methylcellulose (MC) 91 % of control | dose: 62.0 mg/kg/injection, schedule: Q01DX015 (ip), vehicle: methylcellulose (MC) 100 % of control

CCOC(=O)CS(C)(=O)=O
inactive: [1] 98 % of control | [2] 93 % of control | [3] 94 % of control

COCc1c(COc2ccc(Cl)cc2)n(C)c2ccccc12
inactive: dose: 100.0 mg/kg/injection, schedule: Q04DX002 (ip), vehicle: Klucel (hydroxypropylcellulose) (HPC) 101 % of control | dose: 200.0 mg/kg/injection, schedule: Q04DX002 (ip), vehicle: Klucel (hydroxypropylcellulose) (HPC) 92 % of control | dose: 400.0 mg/kg/injection, schedule: Q04DX002 (ip), vehicle: Klucel (hydroxypropylcellulose) (HPC) 99 % of control

Nc1nc(N)c2nc(CNc3cccc4ccccc34)cnc2n1
inactive: dose: 10.0 mg/kg/injection, schedule: Q01DX009 (ip), vehicle: Klucel (hydroxypropylcellulose) (HPC) 102 % of control | dose: 20.0 mg/kg/injection, schedule: Q01DX009 (ip), vehicle: Klucel (hydroxypropylcellulose) (HPC) 102 % of control | dose: 40.0 mg/kg/injection, schedule: Q01DX009 (ip), vehicle: Klucel (hydroxypropylcellulose) (HPC) 100 % of control

CC1=Cc2ccc(C)cc2C(=O)C1=O
inactive: dose: 6.25 mg/kg/injection, schedule: Q04DX003 (ip), vehicle: saline with Tween-80 94 % of control

O=C1CC2CC1C1CC(Br)C(Br)C21 (stereo not drawn)
inactive: dose: 100.0 mg/kg/injection, schedule: Q04DX003 (ip), vehicle: acetone 97 % of control | dose: 200.0 mg/kg/injection, schedule: Q04DX003 (ip), vehicle: acetone 97 % of control | dose: 400.0 mg/kg/injection, schedule: Q04DX003 (ip), vehicle: acetone 92 % of control

COC1CC(N=[N+]=[N-])C(OC(=O)c2ccccc2)C(C)O1 (stereo not drawn)
inactive: [4] 110 % of control | [5] 96 % of control | [6] 102 % of control | [7] 100 % of control | [8] 98 % of control | [9] 102 % of control

NC(=O)Nc1cccc(C(F)(F)F)c1
inactive: dose: 75.0 mg/kg/injection, schedule: Q01DX001 (ip), vehicle: carboxymethylcellulose (CMC) 98 % of control | dose: 150.0 mg/kg/injection, schedule: Q01DX001 (ip), vehicle: carboxymethylcellulose (CMC) 102 % of control | dose: 300.0 mg/kg/injection, schedule: Q01DX001 (ip), vehicle: carboxymethylcellulose (CMC) 103 % of control

CC(CCCN(CCCl)CCCl)Nc1ccnc2cc(Cl)ccc12 (stereo not drawn)
inactive: dose: 5.0 mg/kg/injection, schedule: Q01DX001 (ip), vehicle: saline 119 % of control | dose: 10.0 mg/kg/injection, schedule: Q01DX001 (ip), vehicle: saline 105 % of control

CC(=O)Nc1nc(C=O)cc(=O)[nH]1
inactive: dose: 100.0 mg/kg/injection, schedule: Q01DX001 (ip), vehicle: Klucel (hydroxypropylcellulose) (HPC) 100 % of control | dose: 100.0 mg/kg/injection, schedule: Q01DX001 (ip), vehicle: other 86 % of control | dose: 200.0 mg/kg/injection, schedule: Q01DX001 (ip), vehicle: Klucel (hydroxypropylcellulose) (HPC) 104 % of control | dose: 400.0 mg/kg/injection, schedule: Q01DX001 (ip), vehicle: Klucel (hydroxypropylcellulose) (HPC) 103 % of control | dose: 400.0 mg/kg/injection, schedule: Q01DX001 (ip), vehicle: other 91 % of control

Cn1c(=O)c2c(ncn2CCO)n(C)c1=O
inactive: [1] 100 % of control | dose: 100.0 mg/kg/injection, schedule: Q01DX009 (ip), vehicle: saline 99 % of control | dose: 100.0 mg/kg/injection, schedule: Q04DX003 (ip), vehicle: saline 104 % of control | [2] 104 % of control | dose: 200.0 mg/kg/injection, schedule: Q01DX009 (ip), vehicle: saline 100 % of control | dose: 200.0 mg/kg/injection, schedule: Q04DX003 (ip), vehicle: saline 101 % of control | [3] 102 % of control | dose: 400.0 mg/kg/injection, schedule: Q01DX009 (ip), vehicle: saline 105 % of control | dose: 400.0 mg/kg/injection, schedule: Q04DX003 (ip), vehicle: saline 100 % of control

Cc1cc(C)c(I)c(C(=O)O)c1
inactive: [5] 95 % of control | [7] 104 % of control | [9] 104 % of control

NC(=O)NN=C1CCCCC1
inactive: [10] 97 % of control | [11] 97 % of control | [12] 102 % of control | dose: 70.0 mg/kg/injection, schedule: Q01DX009 (ip), vehicle: Klucel (hydroxypropylcellulose) (HPC) 87 % of control

CN(C)C1(Cc2ccc(Cl)cc2)c2ccccc2-c2ccccc21
inactive: dose: 100.0 mg/kg/injection, schedule: Q01DX009 (ip), vehicle: other 94 % of control | dose: 100.0 mg/kg/injection, schedule: Q04DX003 (ip), vehicle: other 105 % of control | dose: 200.0 mg/kg/injection, schedule: Q01DX009 (ip), vehicle: other 98 % of control | dose: 200.0 mg/kg/injection, schedule: Q04DX003 (ip), vehicle: other 100 % of control | dose: 400.0 mg/kg/injection, schedule: Q01DX009 (ip), vehicle: other 104 % of control | dose: 400.0 mg/kg/injection, schedule: Q04DX003 (ip), vehicle: other 115 % of control

Cn1c(=O)cc(CC(=O)C(=O)O)c2ccccc21
inactive: [1] 88 % of control | [2] 93 % of control | [3] 93 % of control

CC(C)OCCS(=O)(=O)Oc1ncc(Cl)cc1Cl
inactive: dose: 12.5 mg/kg/injection, schedule: Q01DX009 (ip), vehicle: saline with Tween-80 113 % of control | dose: 25.0 mg/kg/injection, schedule: Q01DX009 (ip), vehicle: saline with Tween-80 94 % of control | dose: 50.0 mg/kg/injection, schedule: Q01DX009 (ip), vehicle: saline with Tween-80 96 % of control | [5] 94 % of control | [7] 96 % of control | [8] 90 % of control | [9] 94 % of control

Cc1cccc(C)c1NC(=O)Nc1ccc(C(=O)O)cc1
inactive: [13] 101 % of control | [14] 108 % of control | dose: 400.0 mg/kg/injection, schedule: Q01DX009 (ip), vehicle: Klucel (hydroxypropylcellulose) (HPC) 103 % of control

COC(=O)c1cccc2c1ccc1ccccc12
inactive: dose: 37.5 mg/kg/injection, schedule: Q04DX003 (ip), vehicle: saline 92 % of control | [12] 111 % of control | dose: 75.0 mg/kg/injection, schedule: Q04DX003 (ip), vehicle: saline 94 % of control | [13] 105 % of control | dose: 150.0 mg/kg/injection, schedule: Q04DX003 (ip), vehicle: saline 89 % of control | [14] 96 % of control

O=C(NC(=S)c1cccc2ccccc12)Nc1ccc(Cl)cc1
inactive: [15] 97 % of control | [16] 89 % of control | [17] 89 % of control

CC1CCC2(C(=O)OC3OC(COC4OC(CO)C(OC5OC(C)C(O)C(O)C5O)C(O)C4O)C(O)C(O)C3O)CCC3(C)C(=CCC4C5(C)CC(O)C(O)C(C)(CO)C5CCC43C)C2C1C (stereo not drawn)
inactive: dose: 100.0 mg/kg/injection, schedule: Q01DX001 (ip), vehicle: saline with Tween-80 98 % of control | dose: 200.0 mg/kg/injection, schedule: Q01DX001 (ip), vehicle: saline with Tween-80 98 % of control | dose: 400.0 mg/kg/injection, schedule: Q01DX001 (ip), vehicle: saline with Tween-80 97 % of control

CCCCNC(=S)SCCC(=O)O
inactive: [15] 100 % of control | [16] 104 % of control | [17] 102 % of control

O=CNCc1cnccn1
inactive: [4] 93 % of control | [6] 95 % of control | [8] 97 % of control

CN(C)C(=S)c1ccc(Cl)cc1
inactive: [10] 98 % of control | [11] 98 % of control
